Tests used:
CDK4 = target: T1, CDK4 (Homo sapiens, UniProt P11802); test: Western blot degradation of CDK4 (MDA-MB-231 Cell); assay type: cell-based; details: Table D3
T1 construct: evaluate the effects of the compounds of the present disclosure on the expression of target proteins in cells; endogenous in cells; host or cells: MDA-MB-231
Description: (§1) Conventional Western blot assay was performed to evaluate the effects of the compounds of the present disclosure on the expression of target proteins in cells.
(§2) (1) Cell Seeding and Protein Harvesting: The selected cells were processed according to the cell seeding procedure and protein harvesting procedure in Table III-2. Table III-2 Cell Seeding and Protein Harvesting Procedures
(§3) (2) To the collected supernatant, 5X SDS sample loading buffer was added, followed by denaturation at 95°C for 5 minutes. The denatured samples were then separated by SDS-PAGE electrophoresis on a polyacrylamide gel. Proteins were transferred to a nitrocellulose membrane (0.45 µm NC membrane), blocked with blocking buffer at room temperature for 1 hour, and subjected to antibody incubation and development procedures according to the antibody manufacturer's instructions (Cell Signaling Technology).
(§4) Half-Maximal Degradation Concentration value (the drug concentration required for degrading proteins by 50%, abbreviated as DC50) reads method: comparing the grayscale values of Western blot bands from drug-treated samples with those from blank DMSO-treated controls, and identifying the drug concentration range at which the grayscale value is half that of the DMSO-treated control bands.
(§5) DC50 values can be calculated using ImageJ software to measure grayscale values of Western blot bands from drug-treated samples. The concentration-response curve is fitted to estimate the drug concentration corresponding to half the grayscale value.
(§6) Target protein remaining (%) refers to the percentage of target protein remaining in hPBMC cells after treatment with protein degrader compounds.
(§7) Calculation method for target protein remaining (%): Use ImageJ software to measure grayscale values of Western blot bands from drug (protein degrader)-treated samples. The grayscale value of drug-treated bands is divided by that of internal control protein bands, and the resulting quotient is normalized to obtain the relative percentage of remaining target protein after protein degrader treatment.
(§8) Target protein degradation rate (%) = 100% - target protein remaining (%).

CCRF-CEM = test: CCK-8 proliferation, CCRF-CEM; assay type: cell-based, Human; details: Homo sapiens, CCRF-CEM; CCK-8; 96 hours; read-out: Inhibitory activity (IC50) on tumor cell proliferation, CCRF-CEM
Description: The tumor cells used herein were cultured in a cell culture medium listed in table A1 at 37°C in an incubator with 5% CO2. Prior to experimentation, all cell lines used were correctly identified by STR profiling, and tested negative for mycoplasma contamination using a mycoplasma detection kit through routine screenings. Table A1. Tumor cells and cell culture medium used in the present disclosure
IC50 values of the compounds of the present disclosure (including the compounds in Table 1, and compounds of examples) were measured using the Meilun Cell Counting Kit-8 kit from Dalian Meilun Biotech Co., Ltd. Assay details are as follows: tumor cells were seeded in a 96-well plate at a density listed in Table A2. After 24h, 100 µL of the inoculated cells were treated with 0.5µL of the compounds of the present disclosure (including the compounds in Tables 1 and 2, and compounds of examples) at 10 different successively decreasing concentrations (starting at the highest concentration of 10µM; 5-fold serial dilutions). After the cells were treated with the compounds of the present disclosure for a period of time, the cell viability detection reagent was added to the culture medium for cell viability assessment according to the instructions provided with the CCK-8 kit. […] The growth inhibition of the compounds of the present disclosure on cells was plotted by Prism Graphpad software, and the IC50 values of the compounds of the present disclosure were calculated therefrom. […] Seeding protocol and treatment time for tumor cells

CDK6 = target: T2, CDK6 (Homo sapiens, UniProt Q00534); test: Western blot degradation of CDK6 (MDA-MB-231 Cell); assay type: cell-based; details: Table D3
T2 construct: evaluate the effects of the compounds of the present disclosure on the expression of target proteins in cells; endogenous in cells; host or cells: MDA-MB-231
Description: as §1, §2, §3, §4, §5, §6, §7, §8

RSK1 = target: T3, RSK1 (Homo sapiens, UniProt Q15418); test: Western blot degradation of RSK1 (hPBMC); assay type: cell-based; details: Table D8
T3 construct: evaluate the effects of the compounds of the present disclosure on the expression of target proteins in cells; endogenous in cells; host or cells: hPBMC
Description: as §1, §2, §3, §4, §5, §6, §7, §8

RSK2 = target: T4, RSK2 (Homo sapiens, UniProt P51812); test: Western blot degradation of RSK2 (hPBMC); assay type: cell-based; details: Table D8
T4 construct: evaluate the effects of the compounds of the present disclosure on the expression of target proteins in cells; endogenous in cells; host or cells: hPBMC
Description: as §1, §2, §3, §4, §5, §6, §7, §8

T4 sequence (P51812 whole entry): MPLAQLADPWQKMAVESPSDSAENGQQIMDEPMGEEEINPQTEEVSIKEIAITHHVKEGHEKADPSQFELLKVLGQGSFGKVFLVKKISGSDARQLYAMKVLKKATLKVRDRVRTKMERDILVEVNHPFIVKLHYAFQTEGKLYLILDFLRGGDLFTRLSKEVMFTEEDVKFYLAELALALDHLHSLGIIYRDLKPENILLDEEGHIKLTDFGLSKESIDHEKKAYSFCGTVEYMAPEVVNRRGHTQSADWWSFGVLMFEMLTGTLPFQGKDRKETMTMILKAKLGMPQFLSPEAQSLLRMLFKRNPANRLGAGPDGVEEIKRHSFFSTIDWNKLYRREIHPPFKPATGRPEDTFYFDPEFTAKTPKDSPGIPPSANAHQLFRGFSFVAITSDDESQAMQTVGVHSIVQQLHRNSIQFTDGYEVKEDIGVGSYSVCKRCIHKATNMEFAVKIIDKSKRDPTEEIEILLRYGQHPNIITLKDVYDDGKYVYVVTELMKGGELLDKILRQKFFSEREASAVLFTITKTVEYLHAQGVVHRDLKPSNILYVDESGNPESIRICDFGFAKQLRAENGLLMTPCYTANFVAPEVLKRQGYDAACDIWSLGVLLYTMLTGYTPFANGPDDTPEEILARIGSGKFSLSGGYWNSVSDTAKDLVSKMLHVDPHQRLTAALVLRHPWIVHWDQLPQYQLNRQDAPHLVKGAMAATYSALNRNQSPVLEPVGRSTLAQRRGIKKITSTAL
T3 sequence (Q15418 whole entry): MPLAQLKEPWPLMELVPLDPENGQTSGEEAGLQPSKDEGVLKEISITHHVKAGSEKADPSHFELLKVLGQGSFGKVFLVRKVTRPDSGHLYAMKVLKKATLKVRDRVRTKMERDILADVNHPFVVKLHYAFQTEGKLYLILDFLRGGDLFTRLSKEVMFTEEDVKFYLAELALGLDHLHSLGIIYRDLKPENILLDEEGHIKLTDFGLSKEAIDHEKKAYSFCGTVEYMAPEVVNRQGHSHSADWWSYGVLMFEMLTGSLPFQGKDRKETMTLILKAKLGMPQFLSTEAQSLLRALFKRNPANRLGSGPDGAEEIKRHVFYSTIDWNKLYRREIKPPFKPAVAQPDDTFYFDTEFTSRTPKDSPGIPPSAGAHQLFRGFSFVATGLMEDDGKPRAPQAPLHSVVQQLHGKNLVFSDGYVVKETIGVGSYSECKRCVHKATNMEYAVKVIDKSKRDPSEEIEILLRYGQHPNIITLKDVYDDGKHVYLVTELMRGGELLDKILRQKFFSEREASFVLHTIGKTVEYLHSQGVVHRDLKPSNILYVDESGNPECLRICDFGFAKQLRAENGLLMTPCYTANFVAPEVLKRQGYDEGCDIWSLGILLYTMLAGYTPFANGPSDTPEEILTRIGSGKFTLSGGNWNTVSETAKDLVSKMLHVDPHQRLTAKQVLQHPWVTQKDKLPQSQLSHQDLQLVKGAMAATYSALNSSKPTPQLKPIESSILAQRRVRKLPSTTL
T1 sequence (P11802 whole entry): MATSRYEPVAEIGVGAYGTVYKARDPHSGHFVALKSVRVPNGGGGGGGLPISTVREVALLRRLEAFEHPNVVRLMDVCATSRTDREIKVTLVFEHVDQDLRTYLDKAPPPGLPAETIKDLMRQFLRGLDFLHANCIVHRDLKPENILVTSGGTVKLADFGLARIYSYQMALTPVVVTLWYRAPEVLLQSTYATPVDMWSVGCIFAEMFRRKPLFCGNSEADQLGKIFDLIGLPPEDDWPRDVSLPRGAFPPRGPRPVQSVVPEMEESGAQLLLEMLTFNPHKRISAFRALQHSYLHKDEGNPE
T2 sequence (Q00534 whole entry): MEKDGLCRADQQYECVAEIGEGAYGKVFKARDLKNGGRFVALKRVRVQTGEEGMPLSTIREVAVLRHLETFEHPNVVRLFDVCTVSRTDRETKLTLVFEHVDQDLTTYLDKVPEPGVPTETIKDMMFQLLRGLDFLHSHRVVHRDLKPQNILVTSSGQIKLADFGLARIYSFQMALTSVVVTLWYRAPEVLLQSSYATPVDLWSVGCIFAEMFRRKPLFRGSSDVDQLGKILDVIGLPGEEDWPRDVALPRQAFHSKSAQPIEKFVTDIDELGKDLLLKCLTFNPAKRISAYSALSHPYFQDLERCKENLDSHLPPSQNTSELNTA

| Compound | Degradation of substrate protein CDK4 (substrate protein remaining %) (CDK4) | IC50 (CCRF-CEM) | Degradation of substrate protein CDK6 (substrate protein remaining %) (CDK6) | Degradation of substrate protein RSK1 (substrate protein remaining %) (RSK1) | Degradation of substrate protein RSK2 (substrate protein remaining %) (RSK2) |
| --- | --- | --- | --- | --- | --- |
| CN(C)C(=O)c1cc2cnc(Nc3ccc(N4CCN(Cc5ccnc(N6CCC(=O)NC6=O)c5)CC4)cn3)nc2n1C1CCCC1 [GT-07475, 7-cyclopentyl-2-((5-(4-((2-(2,4-dioxotetrahydropyrimidin-1(2H)-yl)pyridin-4-yl)methyl)piperazin-1-yl)pyridin-2-yl)amino)-N,N-dimethyl-7H-pyrrolo[2,3-d]pyrimidine-6-carboxamide] | A (A is defined as 0% ≤ substrate protein remaining % ≤ 80%) | 0.5 to 1 µM | A (A is defined as 0% ≤ substrate protein remaining % ≤ 80%) |  |  |
| C[C@@H]1CNC(=O)c2cc3ccc(C(=O)Nc4cnn(Cc5ccc(NCc6cc(N7CCC(=O)NC7=O)ncc6F)cc5)c4)nc3n21 [GT-07794, (R)-N-(1-(4-(((2-(2,4-dioxotetrahydropyrimidin-1(2H)-yl)-5-fluoropyridin-4-yl)methyl)amino)benzyl)-1H-pyrazol-4-yl)-9-methyl-6-oxo-6,7,8,9-tetrahydropyrido[3',2':4,5]pyrrolo[1,2-a]pyrazine-2-carboxamide] |  |  |  | A (A is defined as 0% ≤ substrate protein remaining % ≤ 80%) | B (B is defined as substrate protein remaining % > 80%) |
| C[C@@H]1CNC(=O)c2cc3ccc(C(=O)Nc4cnn(Cc5ccc(N6CCN(Cc7cc(N8CCC(=O)NC8=O)ncc7F)CC6)cc5)c4)nc3n21 [GT-07797, (R)-N-(1-(4-(4-((2-(2,4-dioxotetrahydropyrimidin-1(2H)-yl)-5-fluoropyridin-4-yl)methyl)piperazin-1-yl)benzyl)-1H-pyrazol-4-yl)-9-methyl-6-oxo-6,7,8,9-tetrahydropyrido[3',2':4,5]py rrolo[1,2-a]pyrazine-2-carboxamide] |  |  |  | A (A is defined as 0% ≤ substrate protein remaining % ≤ 80%) | A (A is defined as 0% ≤ substrate protein remaining % ≤ 80%) |
| C[C@@H]1CNC(=O)c2cc3ccc(C(=O)Nc4cnn(Cc5ccc(N6CCN(Cc7ccnc(N8CCC(=O)NC8=O)c7)CC6)cc5)c4)nc3n21 [GT-07798, (R)-N-(1-(4-(4-((2-(2,4-dioxotetrahydropyrimidin-1(2H)-yl)pyridin-4-yl)methyl)piperazin-1-yl)benzyl)-1H-pyrazol-4-yl)-9-methyl-6-oxo-6,7,8,9-tetrahydropyrido[3',2':4,5]py rrolo[1,2-a]pyrazine-2-carboxamide] |  |  |  | A (A is defined as 0% ≤ substrate protein remaining % ≤ 80%) | A (A is defined as 0% ≤ substrate protein remaining % ≤ 80%) |
| C[C@@H]1CNC(=O)c2cc3ccc(C(=O)Nc4cnn(Cc5ccc(N6CCN(Cc7cncc(N8CCC(=O)NC8=O)c7)CC6)cc5)c4)nc3n21 [GT-07925, (R)-N-(1-(4-(4-((5-(2,4-dioxotetrahydropyrimidin-1(2H)-yl)pyridin-3-yl)methyl)piperazin-1-yl)benzyl)-1H-pyrazol-4-yl)-9-methyl-6-oxo-6,7,8,9-tetrahydropyrido[3',2':4,5]py rrolo[1,2-a]pyrazine-2-carboxamide] |  |  |  | A (A is defined as 0% ≤ substrate protein remaining % ≤ 80%) | B (B is defined as substrate protein remaining % > 80%) |
| C[C@@H]1CNC(=O)c2cc3ccc(C(=O)Nc4cnn(Cc5ccc(N6CCN(Cc7ccc(N8CCC(=O)NC8=O)cc7)CC6)cc5)c4)nc3n21 [GT-07927, (R)-N-(1-(4-(4-(4-(2,4-dioxotetrahydropyrimidin-1(2H)-yl)benzyl)piperazin-1-yl)benzyl)-1H-pyrazol-4-yl)-9-methyl-6-oxo-6,7,8,9-tetrahydropyrido[3',2':4,5]py rrolo[1,2-a]pyrazine-2-carboxamide] |  |  |  | A (A is defined as 0% ≤ substrate protein remaining % ≤ 80%) | A (A is defined as 0% ≤ substrate protein remaining % ≤ 80%) |
